Assay results as given in US7445939B2, “Stable liquid membranes for liquid phase microextraction” (Varian, Inc., priority 2004, dated 2008).
Values belong to the compound of their own block, whether it stands above or below them.

What was measured:
[1] = Weights of fibers with liquid membranes as a function of time and storing condition; format: physicochemical
[2] = supported liquid membranes of WO 02/088672; cited from earlier work
[3] = Extraction ability and storage stability of supported liquid membranes on hollow fibers (in words); format: physicochemical; details: polypropylene fibers, after 30 days of storage at room temperature
Method: The liquid membrane was formed by dipping the hollow fiber into the organic solvent for 5 to 30 sec to allow the solvent to penetrate into the pores of the fiber. Then acceptor solution was introduced into the lumen of the fiber using a syringe. The acceptor solution was 10 mM HCl, having a pH of 2. Extraction ability was tested by immersing the hollow fibers with their supported liquid membranes into a sample vial containing 4 mL of a solution containing 5 basic drugs, at a pH of 12, with stirring, and allowing the analytes to equilibrate across the liquid membranes to the acceptor solution within (25 μl 10 mM HCl). After allowing the sample analytes sufficient time to reach equilibration with the acceptor solution, about 15 to 60 minutes, the acceptor solution was withdrawn from the hollow fibers, and the concentration of analytes was determined using capillary electrophoresis.
Experiments were performed using polypropylene and polysulfone hollow fibers, testing the effectiveness and stability of liquid membranes comprising fatty oils in the extraction of analytes from samples after storage of the fibers for 30 days prior to use. Supported liquid membranes were established on the hollow fibers using the procedures described in Example 1 above, but substituting the following oils for the organic solvents tested in Example 1: tributyrin, soya oil, or olive oil. […]

Weight (mg) of fibers ([1]; DDA table, closed container, Day 0): 42.40 mg
Weight (mg) of fibers ([1]; DDA table, closed container, Day 3): 42.14 mg
Weight (mg) of fibers ([1]; DDA table, closed container, Day 10): 42.12 mg
Weight (mg) of fibers ([1]; DDA table, open to the air, Day 0): 45.94 mg
Weight (mg) of fibers ([1]; DDA table, open to the air, Day 2): 43.92 mg
Weight (mg) of fibers ([1]; DDA table, open to the air, Day 5): 41.70 mg
Compound: CCCCCCCCCCCCOC(C)=O [DDA, dodecyl acetate]

Weight (mg) of fibers ([1]; MA table, closed container, Day 0): 38.76 mg
Weight (mg) of fibers ([1]; MA table, closed container, Day 4): 38.72 mg
Weight (mg) of fibers ([1]; MA table, open to the air, Day 0): 41.36 mg
Weight (mg) of fibers ([1]; MA table, open to the air, Day 4): 40.90 mg
Compound: CCCCCCCCCCCCCC(=O)OC(C)=O [MA, myristoyl acetate]

Compound: CCCCCCCCOc1ccccc1[N+](=O)[O-] [NPOE, nitropheyloctyl ether]
Membrane lifetime [2]: 10 to 20 days

Extraction performance [3]: extracted analytes
Compound: CCCC(=O)OCC(COC(=O)CCC)OC(=O)CCC [tributyrin]
